Reference: PubChem BioAssay (NCI)
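Step 1: Grow cells in 96-well plates. Step 2: Expose to compound for 48 hours at 5 concentrations. Step 3: Interpolate endpoints linearly; if unreached, use highest concentration. TGI is the concentration that stops growth completely.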

Assays:
Assay in all cases: inhibition of tumour cell growth, NCI panel, 48 h
A498 renal = test system: A498 renal
ACHN renal = test system: ACHN renal
CCRF-CEM leukemia = test system: CCRF-CEM leukemia
DLD-1 colon = test system: DLD-1 colon
DMS 114 small cell lung = test system: DMS 114 small cell lung
EKVX NSCLC = test system: EKVX NSCLC
HCC-2998 colon = test system: HCC-2998 colon
HCT-116 colon = test system: HCT-116 colon
HL-60(TB) leukemia = test system: HL-60(TB) leukemia
HOP-62 NSCLC = test system: HOP-62 NSCLC
HT29 colon = test system: HT29 colon
K-562 leukemia = test system: K-562 leukemia
KM12 colon = test system: KM12 colon
LOX IMVI melanoma = test system: LOX IMVI melanoma
LXFL 529 NSCLC = test system: LXFL 529 NSCLC
M14 melanoma = test system: M14 melanoma
M19-MEL melanoma = test system: M19-MEL melanoma
MALME-3M melanoma = test system: MALME-3M melanoma
MOLT-4 leukemia = test system: MOLT-4 leukemia
NCI-H23 lung = test system: NCI-H23 lung
NCI-H460 lung = test system: NCI-H460 lung
NCI-H522 lung = test system: NCI-H522 lung
OVCAR-3 ovarian = test system: OVCAR-3 ovarian
OVCAR-4 ovarian = test system: OVCAR-4 ovarian
OVCAR-5 ovarian = test system: OVCAR-5 ovarian
RXF 393 renal = test system: RXF 393 renal
SF-268 CNS = test system: SF-268 CNS
SF-539 CNS = test system: SF-539 CNS
SK-MEL-2 melanoma = test system: SK-MEL-2 melanoma
SK-MEL-28 melanoma = test system: SK-MEL-28 melanoma
SK-OV-3 ovarian = test system: SK-OV-3 ovarian
SN12C renal = test system: SN12C renal
SNB-19 CNS = test system: SNB-19 CNS
SNB-75 CNS = test system: SNB-75 CNS
SNB-78 CNS = test system: SNB-78 CNS
SR leukemia = test system: SR leukemia
TK-10 renal = test system: TK-10 renal
U251 CNS = test system: U251 CNS
UACC-257 melanoma = test system: UACC-257 melanoma
UACC-62 melanoma = test system: UACC-62 melanoma
UO-31 renal = test system: UO-31 renal
XF 498 CNS = test system: XF 498 CNS
786-0 renal = test system: 786-0 renal
A549 NSCLC = test system: A549 NSCLC
CAKI-1 renal = test system: CAKI-1 renal
COLO 205 colon = test system: COLO 205 colon
DMS 273 small cell lung = test system: DMS 273 small cell lung
HCT-15 colon = test system: HCT-15 colon
IGROV1 ovarian = test system: IGROV1 ovarian
KM20L2 colon = test system: KM20L2 colon
OVCAR-8 ovarian = test system: OVCAR-8 ovarian
RPMI-8226 leukemia = test system: RPMI-8226 leukemia
SF-295 CNS = test system: SF-295 CNS
SK-MEL-5 melanoma = test system: SK-MEL-5 melanoma
SW-620 colon = test system: SW-620 colon
HOP-92 NSCLC = test system: HOP-92 NSCLC
NCI-H226 lung = test system: NCI-H226 lung

COc1c(Cl)cc(Cl)cc1S(=O)O
TGI (A498 renal): > 100 µM
TGI (ACHN renal): > 100 µM
TGI (CCRF-CEM leukemia): > 100 µM
TGI (DLD-1 colon): > 100 µM
TGI (DMS 114 small cell lung): > 100 µM
TGI (EKVX NSCLC): > 100 µM
TGI (HCC-2998 colon): > 100 µM
TGI (HCT-116 colon): > 100 µM
TGI (HL-60(TB) leukemia): > 100 µM
TGI (HOP-62 NSCLC): > 100 µM
TGI (HT29 colon): > 100 µM
TGI (K-562 leukemia): > 100 µM
TGI (KM12 colon): > 100 µM
TGI (LOX IMVI melanoma): > 100 µM
TGI (LXFL 529 NSCLC): > 100 µM
TGI (M14 melanoma): > 100 µM
TGI (M19-MEL melanoma): > 100 µM
TGI (MALME-3M melanoma): > 100 µM
TGI (MOLT-4 leukemia): > 100 µM
TGI (NCI-H23 lung): > 100 µM
TGI (NCI-H460 lung): > 100 µM
TGI (NCI-H522 lung): > 100 µM
TGI (OVCAR-3 ovarian): > 100 µM
TGI (OVCAR-4 ovarian): > 100 µM
TGI (OVCAR-5 ovarian): > 100 µM
TGI (RXF 393 renal): > 100 µM
TGI (SF-268 CNS): > 100 µM
TGI (SF-539 CNS): > 100 µM
TGI (SK-MEL-2 melanoma): > 100 µM
TGI (SK-MEL-28 melanoma): > 100 µM
TGI (SK-OV-3 ovarian): > 100 µM
TGI (SN12C renal): > 100 µM
TGI (SNB-19 CNS): > 100 µM
TGI (SNB-75 CNS): > 100 µM
TGI (SNB-78 CNS): > 100 µM
TGI (SR leukemia): > 100 µM
TGI (TK-10 renal): > 100 µM
TGI (U251 CNS): > 100 µM
TGI (UACC-257 melanoma): > 100 µM
TGI (UACC-62 melanoma): > 100 µM
TGI (UO-31 renal): > 100 µM
TGI (XF 498 CNS): > 100 µM

N#CCCN(c1ccc(/C=N/c2nc(-c3ccccc3)cs2)cc1)S(=O)(=O)c1ccccc1
TGI (786-0 renal): > 100 µM
TGI (A498 renal): > 100 µM
TGI (A549 NSCLC): > 100 µM
TGI (CAKI-1 renal): > 100 µM
TGI (CCRF-CEM leukemia): > 100 µM
TGI (COLO 205 colon): > 100 µM
TGI (DLD-1 colon): > 100 µM
TGI (DMS 114 small cell lung): > 100 µM
TGI (DMS 273 small cell lung): > 100 µM
TGI (EKVX NSCLC): > 100 µM
TGI (HCC-2998 colon): > 100 µM
TGI (HCT-116 colon): > 100 µM
TGI (HCT-15 colon): > 100 µM
TGI (HL-60(TB) leukemia): > 100 µM
TGI (HOP-62 NSCLC): > 100 µM
TGI (HT29 colon): > 100 µM
TGI (IGROV1 ovarian): > 100 µM
TGI (K-562 leukemia): > 100 µM
TGI (KM12 colon): > 100 µM
TGI (KM20L2 colon): > 100 µM
TGI (LOX IMVI melanoma): > 100 µM
TGI (LXFL 529 NSCLC): > 100 µM
TGI (M14 melanoma): > 100 µM
TGI (M19-MEL melanoma): > 100 µM
TGI (MALME-3M melanoma): > 100 µM
TGI (MOLT-4 leukemia): > 100 µM
TGI (NCI-H23 lung): > 100 µM
TGI (NCI-H522 lung): > 100 µM
TGI (OVCAR-3 ovarian): > 100 µM
TGI (OVCAR-4 ovarian): > 100 µM
TGI (OVCAR-5 ovarian): > 100 µM
TGI (OVCAR-8 ovarian): > 100 µM
TGI (RPMI-8226 leukemia): > 100 µM
TGI (SF-268 CNS): > 100 µM
TGI (SF-295 CNS): > 100 µM
TGI (SF-539 CNS): > 100 µM
TGI (SK-MEL-2 melanoma): > 100 µM
TGI (SK-MEL-28 melanoma): > 100 µM
TGI (SK-MEL-5 melanoma): > 100 µM
TGI (SK-OV-3 ovarian): > 100 µM
TGI (SN12C renal): > 100 µM
TGI (SNB-19 CNS): > 100 µM
TGI (SNB-75 CNS): 93.5 µM
TGI (SNB-78 CNS): > 100 µM
TGI (SW-620 colon): > 100 µM
TGI (TK-10 renal): > 100 µM
TGI (U251 CNS): > 100 µM
TGI (UACC-257 melanoma): > 100 µM
TGI (UACC-62 melanoma): > 100 µM
TGI (UO-31 renal): > 100 µM
TGI (XF 498 CNS): > 100 µM

CCCCN(CCCC)CC(C(=O)Nc1ccccc1)/C(C)=N\NC(=O)c1ccncc1 (stereo not given)
TGI (786-0 renal): > 100 µM
TGI (A549 NSCLC): > 100 µM
TGI (ACHN renal): > 100 µM
TGI (CAKI-1 renal): > 100 µM
TGI (COLO 205 colon): > 100 µM
TGI (DLD-1 colon): > 100 µM
TGI (DMS 114 small cell lung): > 100 µM
TGI (DMS 273 small cell lung): > 100 µM
TGI (HCC-2998 colon): > 100 µM
TGI (HCT-116 colon): > 100 µM
TGI (HCT-15 colon): > 100 µM
TGI (HL-60(TB) leukemia): > 100 µM
TGI (HOP-62 NSCLC): > 100 µM
TGI (HOP-92 NSCLC): > 100 µM
TGI (HT29 colon): > 100 µM
TGI (IGROV1 ovarian): > 100 µM
TGI (K-562 leukemia): > 100 µM
TGI (KM12 colon): > 100 µM
TGI (KM20L2 colon): > 100 µM
TGI (LOX IMVI melanoma): > 100 µM
TGI (M14 melanoma): > 100 µM
TGI (M19-MEL melanoma): > 100 µM
TGI (MALME-3M melanoma): > 100 µM
TGI (MOLT-4 leukemia): > 100 µM
TGI (NCI-H226 lung): > 100 µM
TGI (NCI-H23 lung): > 100 µM
TGI (NCI-H460 lung): > 100 µM
TGI (NCI-H522 lung): > 100 µM
TGI (OVCAR-3 ovarian): > 100 µM
TGI (OVCAR-4 ovarian): > 100 µM
TGI (OVCAR-5 ovarian): > 100 µM
TGI (OVCAR-8 ovarian): > 100 µM
TGI (RPMI-8226 leukemia): > 100 µM
TGI (RXF 393 renal): > 100 µM
TGI (SF-268 CNS): > 100 µM
TGI (SF-295 CNS): > 100 µM
TGI (SF-539 CNS): > 100 µM
TGI (SK-MEL-28 melanoma): > 100 µM
TGI (SK-MEL-5 melanoma): > 100 µM
TGI (SK-OV-3 ovarian): > 100 µM
TGI (SN12C renal): > 100 µM
TGI (SNB-19 CNS): > 100 µM
TGI (SNB-75 CNS): > 100 µM
TGI (SNB-78 CNS): > 100 µM
TGI (SR leukemia): > 100 µM
TGI (SW-620 colon): > 100 µM
TGI (TK-10 renal): > 100 µM
TGI (U251 CNS): > 100 µM
TGI (UACC-257 melanoma): > 100 µM
TGI (UACC-62 melanoma): > 100 µM
TGI (UO-31 renal): > 100 µM
TGI (XF 498 CNS): > 100 µM
